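Cells were grown in 96-well plates and exposed to each compound for 48 hours at five concentrations; endpoints were interpolated linearly between bracketing concentrations, or set to the highest concentration if not reached. At the TGI there is no net growth.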
Experiments:
Assay in all cases: DTP human tumour cell line panel, 48 h
786-0 renal = tested on: 786-0 renal
A498 renal = tested on: A498 renal
A549 NSCLC = tested on: A549 NSCLC
ACHN renal = tested on: ACHN renal
BT-549 breast = tested on: BT-549 breast
CAKI-1 renal = tested on: CAKI-1 renal
CCRF-CEM leukemia = tested on: CCRF-CEM leukemia
COLO 205 colon = tested on: COLO 205 colon
DU-145 prostate = tested on: DU-145 prostate
EKVX NSCLC = tested on: EKVX NSCLC
HCC-2998 colon = tested on: HCC-2998 colon
HCT-116 colon = tested on: HCT-116 colon
HCT-15 colon = tested on: HCT-15 colon
HL-60(TB) leukemia = tested on: HL-60(TB) leukemia
HOP-62 NSCLC = tested on: HOP-62 NSCLC
HOP-92 NSCLC = tested on: HOP-92 NSCLC
HS 578T breast = tested on: HS 578T breast
HT29 colon = tested on: HT29 colon
IGROV1 ovarian = tested on: IGROV1 ovarian
K-562 leukemia = tested on: K-562 leukemia
KM12 colon = tested on: KM12 colon
LOX IMVI melanoma = tested on: LOX IMVI melanoma
M14 melanoma = tested on: M14 melanoma
MALME-3M melanoma = tested on: MALME-3M melanoma
MCF7 breast = tested on: MCF7 breast
MDA-MB-231 breast = tested on: MDA-MB-231 breast
MDA-MB-435 = tested on: MDA-MB-435
MDA-N = tested on: MDA-N
MOLT-4 leukemia = tested on: MOLT-4 leukemia
NCI-H23 lung = tested on: NCI-H23 lung
NCI-H460 lung = tested on: NCI-H460 lung
NCI-H522 lung = tested on: NCI-H522 lung
NCI/ADR-RES ovarian = tested on: NCI/ADR-RES ovarian
OVCAR-3 ovarian = tested on: OVCAR-3 ovarian
OVCAR-5 ovarian = tested on: OVCAR-5 ovarian
OVCAR-8 ovarian = tested on: OVCAR-8 ovarian
PC-3 prostate = tested on: PC-3 prostate
RPMI-8226 leukemia = tested on: RPMI-8226 leukemia
RXF 393 renal = tested on: RXF 393 renal
SF-268 CNS = tested on: SF-268 CNS
SF-295 CNS = tested on: SF-295 CNS
SF-539 CNS = tested on: SF-539 CNS
SK-MEL-2 melanoma = tested on: SK-MEL-2 melanoma
SK-MEL-28 melanoma = tested on: SK-MEL-28 melanoma
SK-MEL-5 melanoma = tested on: SK-MEL-5 melanoma
SK-OV-3 ovarian = tested on: SK-OV-3 ovarian
SN12C renal = tested on: SN12C renal
SNB-19 CNS = tested on: SNB-19 CNS
SNB-75 CNS = tested on: SNB-75 CNS
SR leukemia = tested on: SR leukemia
SW-620 colon = tested on: SW-620 colon
T-47D breast = tested on: T-47D breast
TK-10 renal = tested on: TK-10 renal
U251 CNS = tested on: U251 CNS
UACC-257 melanoma = tested on: UACC-257 melanoma
UACC-62 melanoma = tested on: UACC-62 melanoma
UO-31 renal = tested on: UO-31 renal
NCI-H226 lung = tested on: NCI-H226 lung
OVCAR-4 ovarian = tested on: OVCAR-4 ovarian

Compound `N#CC1=C(N)C(C#N)(C#N)C(c2ccc(F)cc2)C=C1C1CC1` (centres undefined) has a TGI (786-0 renal) of 21.9 µM, a TGI (A498 renal) of 23.5 µM and a TGI (A549 NSCLC) of 41.7 µM. The TGI (ACHN renal) was 25.6 µM, the TGI (BT-549 breast) was 12.5 µM and the TGI (CAKI-1 renal) was 28.2 µM. It also gave a TGI (CCRF-CEM leukemia) of 31.7 µM, a TGI (COLO 205 colon) of 24.9 µM and a TGI (DU-145 prostate) of 25.6 µM. The TGI (EKVX NSCLC) was 75.4 µM, the TGI (HCC-2998 colon) was 25.4 µM and the TGI (HCT-116 colon) was 15.8 µM. The TGI (HCT-15 colon) was 22.3 µM, the TGI (HL-60(TB) leukemia) was 34.8 µM and the TGI (HOP-62 NSCLC) was 25.8 µM. The TGI (HOP-92 NSCLC) was 27 µM, the TGI (HS 578T breast) was > 100 µM and the TGI (HT29 colon) was 22.8 µM. It also gave a TGI (IGROV1 ovarian) of 25.5 µM, a TGI (K-562 leukemia) of 41.9 µM and a TGI (KM12 colon) of 16 µM. For the same compound, the TGI (LOX IMVI melanoma) was 14.5 µM, the TGI (M14 melanoma) was 15.8 µM and the TGI (MALME-3M melanoma) was 26.8 µM. For the same compound, the TGI (MCF7 breast) was 17.1 µM, the TGI (MDA-MB-231 breast) was 33.1 µM and the TGI (MDA-MB-435) was 12.4 µM. The TGI (MDA-N) was 6.67 µM, the TGI (MOLT-4 leukemia) was 25.5 µM and the TGI (NCI-H23 lung) was 13.8 µM. For the same compound, the TGI (NCI-H460 lung) was 17.6 µM, the TGI (NCI-H522 lung) was 14.1 µM and the TGI (NCI/ADR-RES ovarian) was 41.8 µM. For the same compound, the TGI (OVCAR-3 ovarian) was 18.1 µM, the TGI (OVCAR-5 ovarian) was 34.5 µM and the TGI (OVCAR-8 ovarian) was 21.5 µM. It also gave a TGI (PC-3 prostate) of 21.8 µM, a TGI (RPMI-8226 leukemia) of 40.4 µM and a TGI (RXF 393 renal) of 18.6 µM. It also gave a TGI (SF-268 CNS) of 16 µM, a TGI (SF-295 CNS) of 25.8 µM and a TGI (SF-539 CNS) of 2.42 µM. The TGI (SK-MEL-2 melanoma) was 19.4 µM, the TGI (SK-MEL-28 melanoma) was 39.3 µM and the TGI (SK-MEL-5 melanoma) was 16.2 µM. It also gave a TGI (SK-OV-3 ovarian) of 30 µM, a TGI (SN12C renal) of 10.3 µM and a TGI (SNB-19 CNS) of 27.9 µM. For the same compound, the TGI (SNB-75 CNS) was 18.1 µM, the TGI (SR leukemia) was 12.9 µM and the TGI (SW-620 colon) was 56 µM. It also gave a TGI (T-47D breast) of 29 µM, a TGI (TK-10 renal) of 44 µM and a TGI (U251 CNS) of 18.2 µM. The TGI (UACC-257 melanoma) was 21.1 µM, the TGI (UACC-62 melanoma) was 21.5 µM and the TGI (UO-31 renal) was 27.2 µM.

In the case of `Cc1ccc(S(=O)(=O)n2cncc2CO)cc1`, the TGI (786-0 renal) is reported as > 100 µM, the TGI (A549 NSCLC) is reported as > 100 µM and the TGI (ACHN renal) is reported as > 100 µM. The TGI (BT-549 breast) was > 100 µM, the TGI (CAKI-1 renal) was > 100 µM and the TGI (CCRF-CEM leukemia) was > 100 µM. The TGI (COLO 205 colon) was > 100 µM, the TGI (DU-145 prostate) was > 100 µM and the TGI (EKVX NSCLC) was > 100 µM. For the same compound, the TGI (HCC-2998 colon) was > 100 µM, the TGI (HCT-116 colon) was > 100 µM and the TGI (HCT-15 colon) was > 100 µM. For the same compound, the TGI (HL-60(TB) leukemia) was > 100 µM, the TGI (HOP-62 NSCLC) was > 100 µM and the TGI (HS 578T breast) was > 100 µM. The TGI (HT29 colon) was > 100 µM, the TGI (IGROV1 ovarian) was > 100 µM and the TGI (K-562 leukemia) was > 100 µM. For the same compound, the TGI (KM12 colon) was > 100 µM, the TGI (LOX IMVI melanoma) was > 100 µM and the TGI (M14 melanoma) was > 100 µM. The TGI (MALME-3M melanoma) was > 100 µM, the TGI (MCF7 breast) was > 100 µM and the TGI (MDA-MB-231 breast) was > 100 µM. For the same compound, the TGI (MDA-MB-435) was > 100 µM, the TGI (MDA-N) was > 100 µM and the TGI (MOLT-4 leukemia) was > 100 µM. The TGI (NCI-H226 lung) was > 100 µM, the TGI (NCI-H23 lung) was > 100 µM and the TGI (NCI-H460 lung) was > 100 µM. For the same compound, the TGI (NCI-H522 lung) was > 100 µM, the TGI (NCI/ADR-RES ovarian) was > 100 µM and the TGI (OVCAR-3 ovarian) was > 100 µM. The TGI (OVCAR-4 ovarian) was > 100 µM, the TGI (OVCAR-5 ovarian) was > 100 µM and the TGI (OVCAR-8 ovarian) was > 100 µM. The TGI (PC-3 prostate) was > 100 µM, the TGI (RPMI-8226 leukemia) was > 100 µM and the TGI (RXF 393 renal) was > 100 µM. For the same compound, the TGI (SF-268 CNS) was > 100 µM, the TGI (SF-295 CNS) was > 100 µM and the TGI (SF-539 CNS) was > 100 µM. For the same compound, the TGI (SK-MEL-2 melanoma) was > 100 µM, the TGI (SK-MEL-28 melanoma) was > 100 µM and the TGI (SK-MEL-5 melanoma) was > 100 µM. The TGI (SK-OV-3 ovarian) was > 100 µM, the TGI (SN12C renal) was > 100 µM and the TGI (SNB-19 CNS) was > 100 µM. The TGI (SNB-75 CNS) was > 100 µM, the TGI (SR leukemia) was > 100 µM and the TGI (SW-620 colon) was > 100 µM. The TGI (T-47D breast) was > 100 µM, the TGI (TK-10 renal) was > 100 µM and the TGI (U251 CNS) was > 100 µM. For the same compound, the TGI (UACC-257 melanoma) was > 100 µM, the TGI (UACC-62 melanoma) was > 100 µM and the TGI (UO-31 renal) was > 100 µM.
